Data on nine compounds can be found in patent US9687539B2, “CD4+ T survivin epitopes and uses thereof” (Commissariat a I'Energie Atomique, priority 2005, dated 2017).

One assay has as its target HLA-DRB3 (DRB3*0101) (Homo sapiens, UniProt P01903+P79483). The assay can be described thus: Competitive HLA II/peptide binding assay, HLA-DRB3. The following applies: competition with biotinylated tracer; 3 independent experiments.
In the next assay the target is HLA-DR15 (DRB1*1501) (Homo sapiens, UniProt P01903+P01911). Briefly: Competitive HLA II/peptide binding assay, HLA-DR15. The following applies: competition with biotinylated tracer; 3 independent experiments.
For the next assay, the target named is HLA-DRB5 (DRB5*0101) (Homo sapiens, UniProt P01903+Q30154). Briefly: Competitive HLA II/peptide binding assay, HLA-DRB5. The following applies: competition with biotinylated tracer; 3 independent experiments.
Another assay addresses HLA-DR3 (DRB1*0301) (Homo sapiens, UniProt P01903+P01911, A100K/A102G/A103R/A169T/F55Y/I96L/K41T/L162R/M171V/P40S/Q125H/Q178H/Q39Y/R42S/S66N/T106N/T262R/W38E/Y61H). Briefly: biochemical. Particulars: competition with biotinylated tracer; 3 independent experiments; read-out: Binding activity DR3 (IC50).
The test system of assay [1] is 12 predominant HLA II molecules. Briefly: Binding to the 12 predominant HLA II molecules, summary. More on the design: species or system human. The following applies: for No. of molecules fixed: number of the 12 predominant HLA II molecules bound (IC50 < 1000 nM). From the text: The assays for binding to HLA II molecules are competitive binding assays with immunoenzymatic visualization, as described in U.S. Pat. No. 6,649,166, Texier et al., J. Immunol., 2000, 164, 3177-3184 and Texier et al., Eur. J. Immunol., 2001, 31, 1837-1846, for the HLA-DR molecules, and in PCT international application WO 03/040299 and Castelli et al., J. Immunol., 2002, 169, 6928-6934, for the HLA-DP4 molecule. The use of these assays for measuring the binding activity of peptides derived from various antigens is illustrated in U.S. Pat. No. 6,649,166 and PCT international applications WO 02/090382, WO 03/040299 and WO 2004/014936.
The sensitivity of each assay is reflected by the IC50 values observed with the nonbiotinylated peptides which correspond to the tracers; the IC50 values of the tracers vary by a factor of less than three.

The target in another assay is HLA-DR7 (DRB1*0701) (Homo sapiens, UniProt P01903+P01911, A100R/A102G/A103Q/D57E/D86V/E43K/F76Y/K127E/L162R/M171V/P40G/Q125H/Q99D/R33Q/R42Y/R54Q/S133A/S66F/T210M/V115G/Y107V/Y59L/Y89S). Briefly: biochemical. Particulars: competition with biotinylated tracer; 3 independent experiments; read-out: Binding activity DR7 (IC50).
Another assay has as its target HLA-DR1 (DRB1*0101) (Homo sapiens, UniProt P01903+P01911, A100R/D57E/F55L/F60I/F76Y/I96L/L162R/M171V/P40L/Q125E/R42F/V115G/Y59C). Briefly: Competitive HLA II/peptide binding assay, HLA-DR1. Particulars: competition with biotinylated tracer; 3 independent experiments.
The next assay addresses HLA-DRB4 (DRB4*0101) (Homo sapiens, UniProt P01903+P13762, G164S). The assay can be described thus: Competitive HLA II/peptide binding assay, HLA-DRB4. The following applies: competition with biotinylated tracer; 3 independent experiments.
The target of another assay is HLA-DR4 (DRB1*0401) (Homo sapiens, UniProt P01903+P01911, A100K/A169T/F76Y/I96L/K127E/L162R/M171V/N62H/P40V/Q125Y/R42H/S133A/S149N/S66Y/V115G/V209L/W38E). The assay can be described thus: Competitive HLA II/peptide binding assay, HLA-DR4. Particulars: competition with biotinylated tracer; 3 independent experiments.
The target in the next assay is T1, HLA-DP401 (DP*0401) (Homo sapiens, UniProt P04440+P20036).
T1 sequence (P04440 30-258): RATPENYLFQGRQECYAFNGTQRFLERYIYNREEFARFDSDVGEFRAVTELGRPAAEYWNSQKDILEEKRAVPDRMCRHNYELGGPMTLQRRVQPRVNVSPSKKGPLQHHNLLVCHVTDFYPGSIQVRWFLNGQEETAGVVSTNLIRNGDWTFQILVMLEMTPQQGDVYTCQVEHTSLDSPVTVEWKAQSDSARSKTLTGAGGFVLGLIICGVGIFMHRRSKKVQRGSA
T1 sequence (P20036 29-260): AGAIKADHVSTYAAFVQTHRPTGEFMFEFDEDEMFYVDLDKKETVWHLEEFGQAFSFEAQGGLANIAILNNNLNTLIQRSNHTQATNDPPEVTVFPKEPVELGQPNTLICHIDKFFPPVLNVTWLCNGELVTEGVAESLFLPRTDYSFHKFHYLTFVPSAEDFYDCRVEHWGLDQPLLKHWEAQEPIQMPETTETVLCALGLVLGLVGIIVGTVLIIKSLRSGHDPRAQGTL
The assay can be described thus: biochemical. Particulars: competition with biotinylated tracer; 3 independent experiments; read-out: Binding activity DP401 (IC50).

A further assay has as its target T2, HLA-DP402 (DP*0402) (Homo sapiens, UniProt P04440+P20036, A65V/A84D/A85E/L207M).
T2 sequence (P04440 30-258 A65V/A84D/A85E): T1 sequence (P04440 30-258) with A36V, A55D, A56E
T2 sequence (P20036 29-260): T1 sequence (P20036 29-260)
Briefly: biochemical. Particulars: competition with biotinylated tracer; 3 independent experiments; read-out: Binding activity DP402 (IC50).

The target of the next assay is HLA-DR11 (DRB1*1101) (Homo sapiens, UniProt P01903+P01911, A100R/A169T/A87E/I96F/K41T/L162R/M171V/P40S/Q125H/Q178H/Q39Y/Q99D/R42S/S66Y/T262R/V115G/W38E). The assay can be described thus: biochemical. The following applies: competition with biotinylated tracer; 3 independent experiments; read-out: Binding activity DR11 (IC50).
For the next assay, the target named is HLA-DR13 (DRB1*1301) (Homo sapiens, UniProt P01903+P01911, A100E/A169T/K41T/L162R/M171V/P40S/Q125H/Q178H/Q39Y/Q99D/R42S/S66N/T262R/W38E/Y61H). Briefly: Competitive HLA II/peptide binding assay, HLA-DR13. The following applies: competition with biotinylated tracer; 3 independent experiments; read-out: Binding activity DR13 (IC50).

Residue numbers refer to the chain shown, from its start. No end group written: not given here. Bounds are passed on as bounds.

The IC50 is the midpoint of a concentration-inhibition curve. With `CC(C)C[C@H](NC(=O)[C@H](Cc1ccccc1)NC(=O)[C@@H]1CCCN1C(=O)[C@H](CCC(N)=O)NC(=O)[C@H](Cc1c[nH]c2ccccc12)NC(=O)[C@H](C)NC(=O)[C@@H]1CCCN1C(=O)[C@@H]1CCCN1C(=O)[C@H](CC(C)C)NC(=O)[C@@H](NC(=O)[C@@H]1CCCN1)[C@@H](C)O)C(=O)N[C@@H](CCCCN)C(=O)N[C@@H](CC(=O)O)C(=O)N[C@@H](Cc1c[nH]cn1)C(=O)N[C@@H](CCCNC(=N)N)C(=O)O` [4-18, P T L P P A W Q P F L K D H R], the IC50 at HLA-DRB3 (DRB3*0101) is more than 100 µM; on HLA-DR15 (DRB1*1501) it was more than 100 µM; on HLA-DRB5 (DRB5*0101) it was 5.48 µM; on HLA-DR3 (DRB1*0301), more than 100 µM; at HLA-DR7 (DRB1*0701), more than 100 µM; at HLA-DR1 (DRB1*0101), 45 µM. The IC50 on HLA-DRB4 (DRB4*0101) and on HLA-DR4 (DRB1*0401) was more than 100 µM in each case. Also, in assay [1], the “Binding specificity for HLA II molecules” value is reported as “bind only to the HLA-DR11 molecule”. The “No. of molecules fixed” value in assay [1] was determined as 1.
Take “DPIEEHKKHSSGCAF [72-86, D P I E E H K K H S S G C A F]”: the IC50 at HLA-DRB3 (DRB3*0101), at HLA-DR15 (DRB1*1501), on HLA-DR3 (DRB1*0301), on HLA-DR7 (DRB1*0701), at HLA-DP401 (DP*0401) and at HLA-DP402 (DP*0402) was more than 100 µM throughout. In addition, the concentration for half-maximal inhibition (IC50) on HLA-DR11 (DRB1*1101), at HLA-DRB4 (DRB4*0101) and at HLA-DR4 (DRB1*0401) was more than 100 µM throughout. Besides, in [1], the “No. of molecules fixed” value came out at 0.
Turning to “EGWEPDDDPIEEHKK [65-79, E G W E P D D D P I E E H K K]”, the half-maximal inhibitory concentration (IC50) on HLA-DRB3 (DRB3*0101), at HLA-DR15 (DRB1*1501), on HLA-DR13 (DRB1*1301), on HLA-DRB5 (DRB5*0101), at HLA-DR3 (DRB1*0301) and at HLA-DR7 (DRB1*0701) was more than 100 µM throughout. For the same compound, the IC50 on HLA-DP401 (DP*0401), at HLA-DR1 (DRB1*0101), at HLA-DP402 (DP*0402), on HLA-DR11 (DRB1*1101), at HLA-DRB4 (DRB4*0101) and at HLA-DR4 (DRB1*0401) was more than 100 µM in each case. Moreover, the “No. of molecules fixed” value in assay [1] is given as 0.
“KEFEETAKKVRRAIE [122-136, K E F E E T A K K V R R A I E]”: the IC50 at HLA-DRB3 (DRB3*0101) was more than 100 µM; on HLA-DR15 (DRB1*1501), 1.2 µM; at HLA-DR7 (DRB1*0701), 20 µM; on HLA-DP401 (DP*0401), more than 100 µM; on HLA-DP402 (DP*0402) it was more than 100 µM; on HLA-DRB4 (DRB4*0101), more than 100 µM. The compound also came in with an IC50 at HLA-DR4 (DRB1*0401) of more than 100 µM. In addition, the “No. of molecules fixed” value in assay [1] was found to be 3.
On to “MGAPTLPPAWQPFLK [1-15, M G A P T L P P A W Q P F L K]”, for which the IC50 is more than 100 µM on HLA-DRB3 (DRB3*0101); more than 100 µM on HLA-DR13 (DRB1*1301); 8 µM at HLA-DRB5 (DRB5*0101); more than 100 µM at HLA-DR3 (DRB1*0301); more than 100 µM on HLA-DR7 (DRB1*0701); more than 100 µM on HLA-DRB4 (DRB4*0101). This compound also registered a concentration for half-maximal inhibition (IC50) on HLA-DR4 (DRB1*0401) of more than 100 µM. Moreover, the “Binding specificity for HLA II molecules” value in [1] is listed as “bind only to the HLA-DR11 molecule”. Besides, the “No. of molecules fixed” value in assay [1] is on record as 1.
For the compound “GEFLKLDRERAKNKI [99-113, G E F L K L D R E R A K N K I]”, the IC50 is more than 100 µM on HLA-DRB3 (DRB3*0101); 1.2 µM on HLA-DR15 (DRB1*1501); 0.022 µM on HLA-DRB5 (DRB5*0101); more than 100 µM on HLA-DP402 (DP*0402); 0.04 µM on HLA-DR11 (DRB1*1101); 22 µM on HLA-DRB4 (DRB4*0101). Also, the “No. of molecules fixed” value in assay [1] amounted to 3.
As to “KQFEELTLGEFLKLD [91-105, K Q F E E L T L G E F L K L D]”, the half-inhibitory concentration (IC50) on HLA-DRB3 (DRB3*0101) is 30 µM; at HLA-DR13 (DRB1*1301) it was more than 100 µM; on HLA-DR3 (DRB1*0301), more than 100 µM; at HLA-DR11 (DRB1*1101), 2.35 µM; on HLA-DRB4 (DRB4*0101), more than 100 µM. In addition, the “Binding specificity for HLA II molecules” value in assay [1] is “high affinity for the DR1, DR7, DRB5, DP401 and DP402 molecules”. Besides, the “No. of molecules fixed” value in assay [1] is 5.
Take “KELEGWEPDDDPIEE [62-76, K E L E G W E P D D D P I E E]”: the IC50 is 29 µM at HLA-DRB3 (DRB3*0101); 65 µM on HLA-DR15 (DRB1*1501); more than 100 µM on HLA-DR13 (DRB1*1301); more than 100 µM on HLA-DRB5 (DRB5*0101); more than 100 µM on HLA-DR3 (DRB1*0301); more than 100 µM on HLA-DR7 (DRB1*0701). The IC50 at HLA-DP401 (DP*0401), on HLA-DR1 (DRB1*0101), on HLA-DP402 (DP*0402), at HLA-DR11 (DRB1*1101), on HLA-DRB4 (DRB4*0101) and on HLA-DR4 (DRB1*0401) was more than 100 µM throughout. In assay [1], the “No. of molecules fixed” value came to 0.
As for “ERMAEAGFIHCPTEN [36-50, E R M A E A G F I H C P T E N]”, the IC50 is more than 100 µM at HLA-DRB3 (DRB3*0101); more than 100 µM at HLA-DR15 (DRB1*1501); more than 100 µM on HLA-DR13 (DRB1*1301); more than 100 µM at HLA-DR3 (DRB1*0301); 17 µM on HLA-DR7 (DRB1*0701); 17 µM at HLA-DR4 (DRB1*0401). Besides, the “No. of molecules fixed” value in [1] worked out at 0.
